Values of other authors as cited in patent US9557341B2, “Risk assessment for cutaneous adverse drug reactions from antiretroviral agent” (priority 2008, dated 2017).
Read-outs that look alike come from different tables or passages of the source.

Conditions: cited from earlier work; for hypersensitivity reaction incidence: mix French population

Compound | rate of drug rash (human, in vivo) | rate of hepatitis (human, in vivo) | odds ratios, hypersensitivity and HLA-B*5701 (Caucasians) | rate of unwarranted interruptions of therapy (after HLA-B*5701 screening) | rate of unwarranted interruptions of therapy (before HLA-B*5701 screening) | negative predictive value of HLA-B*5701 for hypersensitivity (every ethnic studies) | hypersensitivity syndrome, cases (human, in vivo) | hypersensitivity reaction incidence (after HLA-B*5701 screening) | hypersensitivity reaction incidence (before HLA-B*5701 screening)
O=C1Nc2ccc(Cl)cc2[C@@](C#CC2CC2)(C(F)(F)F)O1 [EFV, efavirenz] | 11% | 9% |  |  |  |  |  |  | 
Nc1nc(NC2CC2)c2ncn([C@H]3C=C[C@@H](CO)C3)c2n1 [abacavir] |  |  | 117 | 0.73% | 10.2% | more than 90% | about 5% | 0% | 12%
